This note sets out measurements from US9765187B2, “MRI contrasting agent for contrasting cancer cell” (SNU R&DB FOUNDATION, priority 2014, dated 2017).

For this assay, the system named is HCT116 cells. The experiment in a line: pH-dependent cellular uptake (flow cytometry, fluorescence). The format is cell-based, human. The note with it: fluorescence and flow cytometry. As for the experimental part: HCT116 cells were exposed to PMNs, InS-NPs and Ce6 at different pHs to verify their cellular uptake respectively. The cells were incubated for 2 h, washed, harvested, and re-suspended with DPBS. In vitro cellular uptake was quantified using a flow cytometer (Beckman, San Jose, Calif., USA). For each sample 10,000 cells (gated events) were counted, and free Ce6 fluorescence was detected with logarithmic settings (FL4; λem=670 nm). Cells were counted as positive if their fluorescence (FL4) was higher than that of cells from an untreated cell suspension. Each experiment was analyzed statistically using the CXP Analysis Program.
The tumor cellular uptake of PMNs was monitored at different pH conditions (pH 7.4 and 6.8) using a KODAK In vivo Image Station (Image Station 4000 MM; Kodak, New Haven, Conn., USA) and a flow cytometer (Beckman, San Jose, Calif., USA). HCT116 cells (1×10^5 cells/mL) were incubated with each sample for 2 h in RPMI-1640 medium (pH 7.4 or 6.8, with 1% penicillin-streptomycin) at 37° C. and then analyzed. To ameliorate photobleaching during microscope observation, a drop of anti-fade mounting solution (5% N-propyl gallate, 47.5% glycerol, and 47.5% Tris-HCl, pH 8.4) was added to the cells.

chlorin E6 [Ce6]: the “cellular uptake at pH 6.8 versus pH 7.4” value is given as “not affected by changes in pH”.
